Measured values published in US20030109418A1, “Methods for identifying compounds for inhibition of neoplastic lesions, and pharmaceutical compositions containing such compounds” (priority 1999, published 2003).
pIC50: −log10 of the molar value. Structures can show the parent of a compound that is named as a salt.

Assays:
[1] = system: LNCaP prostate tumor cell line; assay: Histone-associated DNA fragmentation in prostate tumor cells; type: cell-based; conditions: 50 μM free base, after 24 hours, sustained up to 4 days
Experimental: The androgen-sensitive prostate tumor cell line, LNCaP (from ATCC (Rockville, Md.)) was propogated under standard conditions using […] medium containing 5% fetal calve serum and 2 mM glutamine. Primary prostate epithelial cell cultures (PrEC) derived from normal prostate (from Clonetics Inc. (San Diego, Calif.)) were grown under the same conditions as the tumor cell line except a serum-free medium optimized for the growth of such cultures was used (Clonetics Inc). For the experiments, LNCaP or PrEC cells were seeded in 96 well plates at a density of 10,000 cells per well. After 24 hours, the cells were treated with either vehicle (0.1% DMSO) or 50 μM Compound I (free base) solubilized in DMSO. After various drug treatment times (4, 24, 48, 72, or 99 hours) the cells were lysed and processed for measurement of histone-associated DNA as an indicator of apoptotic cell death (see, Piazza et al., Cancer Research 57: 2452-2459, 1997).
This is in marked contrast to conventional chemotherapeutics that induce apoptosis or necrosis in rapidly growing normal and neoplastic cells alike.

[2] = dog, in vivo
K-562 = assay: Growth inhibition, neutral red assay, K-562; type: cell-based; conditions: Homo sapiens, K562; HCl salt
Experimental: (§1) Compound I's activity is not confined to activity against colon cancer cell lines or animal models of colon cancer. It has a broad range of anti-neoplastic effects in various neoplastic cell lines. Various types of human cancer cell lines were propagated under sterile conditions in RPMI 1640 medium with 10% fetal bovine serum, 2 mM L-glutamine and sodium bicarbonate. To determine growth inhibitory effects of Compound I, cells were seeded in 96-well plates at a density of 1000 cells per well. Twenty-four hours after plating, the cells were dosed with various concentrations of the free base of Compound I solubilized in DMSO (final concentration 0.1%). The effect of the drug on tumor cell growth was determined using the neutral red cytotoxicity assay following five days of continuous treatment. Neutral red is a dye that is selectively taken up by viable cells by an ATP-dependent transport mechanism.

PANC-1 = assay: Growth inhibition, neutral red assay, PANC-1; type: cell-based; conditions: Homo sapiens, HCl salt
Experimental: as §1

UACC375, Melanoma = assay: Growth inhibition, SRB assay, UACC375; type: cell-based; conditions: Homo sapiens, UACC-375
Description: (§2) A compound's ability to inhibit tumor cell growth can be measured using the HT-29 human colon carcinoma cell line obtained from ATCC. HT-29 cells have previously been characterized as a relevant colon tumor cell culture model (Fogh, J., and Trempe, G. In: Human Tumor Cells in Vitro, J. Fogh (eds.), Plenum Press, New York, pp. 115-159, 1975). HT-29 cells are maintained in RPMI media supplemented with 5% fetal bovine calf serum (Gemini Bioproducts, Inc., Carlsbad, Calif.) and 2 mm glutamine, and 1% antibiotic-antimycotic in a humidified atmosphere of 95% air and 5% CO2 at 37° C. Briefly, HT-29 cells are plated at a density of 500 cells/well in 96 well microtiter plates and incubated for 24 hours at 37° C. prior to the addition of compound. […] After six days in culture, the cells are fixed by the addition of cold trichloroacetic acid to a final concentration of 10% and protein levels are measured using the sulforhodamine B (SRB) colorimetric protein stain assay as previously described by Skehan, P., Storeng, R., Scudiero, D., Monks, A., McMahon, J., Vistica, D., Warren, J. T., Bokesch, H., Kenney, S., and Boyd, M. R., “New Colorimetric Assay For Anticancer-Drug Screening,” J. Natl. Cancer Inst. […]
(§3) To show the effectiveness of this screening method on various forms of neoplasia, compounds were tested on numerous cell lines. […] The IC50 values were determined by the SRB assay. […]

[3] = system: KNRK, Kidney (ras transformed); assay: Growth inhibition, SRB assay, KNRK; type: cell-based
[4] = system: HT-29 human colon carcinoma cell line; assay: Growth inhibition, SRB assay, HT-29; type: cell-based; design: Growth Inhibition: key to the marks not given beside the values
[5] = system: NRK, Kidney (non ras-transformed); assay: Growth inhibition, SRB assay, NRK; type: cell-based
[6] = system: β-catenin and PKG levels in SW480 cells; assay: Western blot of β-catenin and PKG in SW480; type: cell-based, human
Experimental: SW480 cells treated with exisulind as described previously are harvested from the microfuge tubes by rinsing once with ice-cold PBS. The cells are lysed by modified RIPA buffer for 15 minutes with agitation. The cell lysate is spun down in a cold room. The supernatants are transferred to fresh microcentrifuge tubes immediately after spinning. BioRad DC Protein Assay (Temecula, Calif.) is performed to determine the protein concentrations in samples. The samples are normalized for protein concentration, as described above.
50 μg of each sample is loaded to 10% SDS gel. SDS-PAGE is performed, and the proteins then are transferred to a nitrocellulose membrane. The blotted nitrocellulose membrane are blocked in freshly prepared TBST containing 5% nonfat dry milk for one hour at room temperature with constant agitation.
A goat-anti-PKG primary antibody is diluted to the recommended concentration/dilution in fresh TBST/5% nonfat dry milk. The nitrocellulose membrane is placed in the primary antibody solution and incubated one hour at room temperature with agitation. The nitrocellulose membrane is washed three times for ten minutes each with TBST. […]
This observation was made by culturing SW480 cells with either 200, 400 or 600 μM exisulind or vehicle (0.1% DMSO). […] Immuno-reactive protein can be detected by Western blot. […]

[7] = system: Bronchial Epithelial Cells; assay: Growth inhibition, SRB assay, bronchial epithelial cells; type: cell-based; conditions: Epithelial cell
Description: as §2, §3

| SMILES | histone-associated fragmented DNA in LNCaP [1] | signs of toxicity, single dose in capsules ([2]; 1000 mg/kg) | drug-related effects, single and seven consecutive doses ([2]; 1000 mg/kg/day) | GI50 (K-562) [µM] | GI50 (PANC-1) [µM] | IC50 (UACC375, Melanoma) [µM] | IC50 [3] [µM] | pIC50 ([4]; Homo sapiens, HT-29, 144 h, six days, SRB assay, read-out: IC50, growth of HT-29 cells) | inhibition at 100 µM ([4]; Homo sapiens, HT-29, read-out: Growth-inhibitory activity, % Inhibition at 100 μM) [%] | Growth Inhibition ([4]; qualitative activity profile) | IC50 [5] [µM] | reduction of expression of β-catenin compared to control ([6]; SW480, 200, 400 or 600 μM, 48 hours, Western blot) [%] | PKG level by Western blot ([6]; SW480, 48 hours) | IC50 [7] [µM] |
| --- | --- | --- | --- | --- | --- | --- | --- | --- | --- | --- | --- | --- | --- | --- |
| CC1=C(CC(=O)NCc2ccccc2)c2cc(F)ccc2/C1=C\c1ccncc1 [Compound I, (Z)-5-fluoro-2-methyl-(4-pyridylidene)-3-(N-benzyl)indenylacetamide hydrochloride] | significant increase in fragmented DNA | no signs of toxicity | At no time in either dosing phase were any obvious signs of drug-related effects observed | 1.8 | 2.2 | – | – | – | – | – | – | – | – | – |
| CC1=C(CC(=O)O)c2cc(F)ccc2/C1=C\c1ccc(S(C)(=O)=O)cc1 [Exisulind, 5-fluoro-2-methyl-1-(p-methylsulfonylbenzylidene)-3-indenylacetic acid] | – | – | – | – | – | 100 | 240 | ~3.70 | < 50 | ++ | 180 | 50 | increase of PKG | 90 |
